Structures can show the parent of a compound that is named as a salt.
How the values were obtained:
IKKε = target: T1, IKKε (Homo sapiens, UniProt Q14164); experiment: IKKε biochemical assay; settings: 10 point 1:4 dose response, 30 uM top concentration, 90 min at 25° C., LabChip EZ Reader II; read-out: IKKε_IC50
T1 sequence (Q14164 1-716): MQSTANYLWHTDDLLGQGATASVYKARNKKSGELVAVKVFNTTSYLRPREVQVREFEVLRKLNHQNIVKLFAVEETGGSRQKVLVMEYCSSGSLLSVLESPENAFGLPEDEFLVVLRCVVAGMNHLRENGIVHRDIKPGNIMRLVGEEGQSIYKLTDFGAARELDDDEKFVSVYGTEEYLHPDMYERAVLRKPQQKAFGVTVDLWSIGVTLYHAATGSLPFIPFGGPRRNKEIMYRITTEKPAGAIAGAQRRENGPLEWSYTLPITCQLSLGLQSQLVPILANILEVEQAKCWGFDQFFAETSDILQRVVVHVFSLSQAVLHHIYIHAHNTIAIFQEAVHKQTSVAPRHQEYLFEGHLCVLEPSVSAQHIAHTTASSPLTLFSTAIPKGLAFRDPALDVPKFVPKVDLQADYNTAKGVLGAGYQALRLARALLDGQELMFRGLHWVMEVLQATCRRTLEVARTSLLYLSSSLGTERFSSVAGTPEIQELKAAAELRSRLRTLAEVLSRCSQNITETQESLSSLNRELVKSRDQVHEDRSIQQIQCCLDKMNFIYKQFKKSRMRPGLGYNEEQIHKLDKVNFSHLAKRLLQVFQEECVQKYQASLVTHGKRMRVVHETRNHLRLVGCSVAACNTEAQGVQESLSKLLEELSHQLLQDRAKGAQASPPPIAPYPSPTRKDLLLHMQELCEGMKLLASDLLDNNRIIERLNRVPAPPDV
Summary of the method: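 Compounds in 1% DMSO final were incubated with IKKε enzyme and substrate at 25° C. for 90 min, then stopped. Substrate and product peaks were resolved by LabChip EZ Reader II mobility-shift read-out. Staurosporine at 10 uM final served as the full-inhibition control.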

TBK1 = target: T2, TBK1 (Homo sapiens, UniProt Q9UHD2); experiment: TBK biochemical assay; settings: 10 point 1:4 dose response, 30 uM top concentration, 90 min at 25° C., LabChip EZ Reader II; read-out: TBK1_IC50
T2 sequence (Q9UHD2 1-729): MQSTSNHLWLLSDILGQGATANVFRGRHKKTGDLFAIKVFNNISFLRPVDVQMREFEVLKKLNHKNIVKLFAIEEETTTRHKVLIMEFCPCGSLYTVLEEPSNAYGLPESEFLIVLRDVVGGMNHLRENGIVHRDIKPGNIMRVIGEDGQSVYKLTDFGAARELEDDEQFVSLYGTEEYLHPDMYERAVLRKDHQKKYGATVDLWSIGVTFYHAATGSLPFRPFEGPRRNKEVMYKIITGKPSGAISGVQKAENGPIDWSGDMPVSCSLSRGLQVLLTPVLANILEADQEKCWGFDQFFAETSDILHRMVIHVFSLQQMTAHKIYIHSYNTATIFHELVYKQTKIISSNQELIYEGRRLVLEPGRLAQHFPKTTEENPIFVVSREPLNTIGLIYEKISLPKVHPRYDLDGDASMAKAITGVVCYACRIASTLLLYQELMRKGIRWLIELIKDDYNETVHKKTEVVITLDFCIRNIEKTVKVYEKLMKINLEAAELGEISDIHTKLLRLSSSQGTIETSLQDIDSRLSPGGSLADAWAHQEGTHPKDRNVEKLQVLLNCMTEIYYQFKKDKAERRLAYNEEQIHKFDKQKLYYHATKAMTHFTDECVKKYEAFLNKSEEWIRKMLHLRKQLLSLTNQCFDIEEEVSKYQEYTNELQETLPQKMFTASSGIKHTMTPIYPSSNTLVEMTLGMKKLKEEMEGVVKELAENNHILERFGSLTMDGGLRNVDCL
Summary of the method: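 Substrate and product were separated and quantified by microfluidic mobility-shift read (LabChip). 10 uM staurosporine served as the full-inhibition control, and the reference compound was tested from 1 uM final.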

Compound | IC50 (IKKε) [nM] | IC50 (TBK1) [nM]
COc1nc(Nc2nccc(-c3ccc(OC4CCN(C)CC4)c(C#N)c3)n2)ccc1N1CCN(C)CC1 [Example 88, 5-(2-[[6-methoxy-5-(4-methylpiperazin-1-yl)pyridin-2-yl]amino]pyrimidin-4-yl)-2-[(1-methylpiperidin-4-yl)oxy]benzonitrile] | 100 to 1000 | 100 to 1000
CN1CCN(c2ccc(Nc3nccc(-c4ccc(OC5CCOCC5)c(C#N)c4)n3)cn2)CC1 [Example 66, 5-{2-[6-(4-Methyl-piperazin-1-yl)-pyridin-3-ylamino]-pyrimidin-4-yl}-2-(tetrahydro-pyran-4-yloxy)-benzonitrile] | < 100 | < 100
COc1cc(Nc2nccc(-c3ccc(OC4CCOCC4)c(C#N)c3)n2)cnc1C(=O)N(C)C [Example 50, 5-([4-[3-cyano-4-(oxan-4-yloxy)phenyl]pyrimidin-2-yl]amino)-3-methoxy-N,N-dimethylpyridine-2-carboxamide] | < 100 | < 100
COc1nc(Nc2nccc(-c3ccc(OC4CCN(C(=O)[C@@H](C)O)CC4(F)F)c(C#N)c3)n2)ccc1N1CCN(C)CC1 (stereo partly drawn) [Example 104, 2-[3,3-Difluoro-1-((R)-2-hydroxy-propionyl)-piperidin-4-yloxy]-5-{2-[6-methoxy-5-(4-methyl-piperazin-1-yl)-pyridin-2-ylamino]-pyrimidin-4-yl}-benzonitrile] | < 100 | < 100
COc1cc(Nc2nccc(-c3ccc(OC4CCOCC4)c(C#N)n3)n2)cnc1C(=O)N(C)C [Example 25, 5-([4-[6-cyano-5-(oxan-4-yloxy)pyridin-2-yl]pyrimidin-2-yl]amino)-3-methoxy-N,N-dimethylpyridine-2-carboxamide] | < 100 | < 100
COc1nc(Nc2nccc(-c3ccc(OC4CCN(C(=O)c5cocn5)CC4)c(C#N)c3)n2)ccc1N1CCN(C)CC1 [Example 93, 5-(2-[[6-methoxy-5-(4-methylpiperazin-1-yl)pyridin-2-yl]amino]pyrimidin-4-yl)-2-([1-[(1,3-oxazol-4-yl)carbonyl]piperidin-4-yl]oxy)benzonitrile] | < 100 | < 100
COc1nc(Nc2nccc(-c3ccc(OC4CCNCC4(F)F)c(C#N)c3)n2)ccc1N1CCN(C)C[C@@H]1C (stereo partly drawn) [Example 109, 2-(3,3-Difluoro-piperidin-4-yloxy)-5-{2-[5-((S)-2,4-dimethyl-piperazin-1-yl)-6-methoxy-pyridin-2-ylamino]-pyrimidin-4-yl}-benzonitrile] | < 100 | < 100
COc1nc(Nc2nccc(-c3ccc(OC4CCN(C(=O)C(C)O)CC4)c(C#N)c3)n2)ccc1N1CCN(C)CC1 (centres unmarked) [Example 91, 2-[[1-(2-hydroxypropanoyl)piperidin-4-yl]oxy]-5-(2-[[6-methoxy-5-(4-methylpiperazin-1-yl)pyridin-2-yl]amino]pyrimidin-4-yl)benzonitrile hydrochloride] | < 100 | < 100
COc1nc(Nc2nccc(-c3ccc(OC4CCOCC4)c(C#N)c3)n2)ccc1C(=O)N1CC2COCC2C1 (centres unmarked) [Example 12, 5-(2-[[5-([hexahydro-1H-furo[3,4-c]pyrol-5-yl]carbonyl)-6-methoxypyridin-2-yl]amino]pyrimidin-4-yl)-2-(oxan-4-yloxy)benzonitrile] | < 100 | < 100

Second part, the compound after the results:

IC50 (IKKε) [nM] | IC50 (TBK1) [nM] | Compound
< 100 | < 100 | COc1nc(Nc2nccc(-c3ccc(OC4CCN(C(=O)[C@@H](C)O)CC4(F)F)c(C#N)c3)n2)ccc1C1CCN(C)CC1 (stereo partly drawn) [Example 147, 2-([3,3-difluoro-1-[(2R)-2-hydroxypropanoyl]piperidin-4-yl]oxy)-5-(2-[[6-methoxy-5-(1-methylpiperidin-4-yl)pyridin-2-yl]amino]pyrimidin-4-yl)benzonitrile]
< 100 | < 100 | N#Cc1cc(-c2ccnc(Nc3cccc(C4CCN(C(CO)CO)CC4)c3)n2)ccc1OC1CCNCC1(F)F (centres unmarked) [Example 156, 2-(3,3-Difluoro-piperidin-4-yloxy)-5-(2-{3-[1-(2-hydroxy-1-hydroxymethyl-ethyl)-piperidin-4-yl]-phenylamino}-pyrimidin-4-yl)-benzonitrile]
< 100 | < 100 | COc1nc(Nc2nccc(-c3ccc(OC4(C)CCNCC4)c(C#N)c3)n2)ccc1N1CCN(C2COC2)CC1 [Example 267, 5-{2-[6-Methoxy-5-(4-oxetan-3-yl-piperazin-1-yl)-pyridin-2-ylamino]-pyrimidin-4-yl}-2-(4-methyl-piperidin-4-yloxy)-benzonitrile]
< 100 | < 100 | COc1nc(Nc2nccc(-c3ccc(O[C@@H]4CCN(C(=O)[C@@H](C)O)C[C@@H]4F)c(C#N)c3)n2)ccc1N1CCN(C2COC2)CC1 [Example 117, 2-[(3S,4R)-3-Fluoro-1-((R)-2-hydroxy-propionyl)-piperidin-4-yloxy]-5-{2-[6-methoxy-5-(4-oxetan-3-yl-piperazin-1-yl)-pyridin-2-ylamino]-pyrimidin-4-yl}-benzonitrile]
< 100 | 100 to 1000 | COc1cc(Nc2nccc(-c3ccc(O[C@H]4CCN(C(=O)[C@@H](C)O)CC4(F)F)c(C#N)c3)n2)ccn1 [Example 230, 2-((S)-3,3-difluoro-1-((R)-2-hydroxypropanoyl)piperidin-4-yloxy)-5-(2-(2-methoxypyridin-4-ylamino)pyrimidin-4-yl)benzonitrile]
< 100 | < 100 | COc1nc(Nc2nccc(-c3ccc(OC4CCN(C(=O)C(C)(C)O)CC4(F)F)c(C#N)c3)n2)ccc1N1CCN(C)C[C@H]1C (stereo partly drawn) [Example 114, 2-[3,3-Difluoro-1-(2-hydroxy-2-methyl-propionyl)-piperidin-4-yloxy]-5-{2-[5-((R)-2,4-dimethyl-piperazin-1-yl)-6-methoxy-pyridin-2-ylamino]-pyrimidin-4-yl}-benzonitrile]
< 100 | < 100 | COc1cccc(Nc2nccc(-c3ccc(OC4CCN(C(=O)c5n[nH]c(C)n5)CC4)c(C#N)c3)n2)n1 [Example 218, 5-[2-[(6-methoxypyridin-2-yl)amino]pyrimidin-4-yl]-2-[[1-(5-methyl-1H-1,2,4-triazole-3-carbonyl)piperidin-4-yl]oxy]benzonitrile]
< 100 | < 100 | COc1nc(Nc2nccc(-c3ccc(O[C@@H]4CCN(C(=O)[C@H](C)O)C[C@@H]4F)c(C#N)c3)n2)ccc1C1CCN(C2COC2)CC1 [Example 194, 2-[(3S,4R)-3-Fluoro-1-((S)-2-hydroxy-propionyl)-piperidin-4-yloxy]-5-[2-(2-methoxy-1′-oxetan-3-yl-1′,2′,3′,4′,5′,6′-hexahydro-[3,4′]bipyridinyl-6-ylamino)-pyrimidin-4-yl]-benzonitrile]
< 100 | < 100 | COc1nc(Nc2nccc(-c3ccc(OC4CCN(C(=O)CO)CC4(F)F)c(C#N)c3)n2)ccc1C1CCN(C2COC2)CC1 (centres unmarked) [Example 154, 2-[3,3-Difluoro-1-(2-hydroxy-acetyl)-piperidin-4-yloxy]-5-[2-(2-methoxy-1′-oxetan-3-yl-1′,2′,3′,4′,5′,6′-hexahydro-[3,4′]bipyridinyl-6-ylamino)-pyrimidin-4-yl]-benzonitrile]
< 100 | < 100 | C[C@H](O)C(=O)N1CCC(Oc2ccc(-c3nc(Nc4ccc(C5CCN(C6COC6)CC5)cc4)ncc3F)cc2C#N)C(F)(F)C1 (stereo partly drawn) [Example 301, 2-({3,3-difluoro-1-[(2S)-2-hydroxypropanoyl]piperidin-4-yl}oxy)-5-[5-fluoro-2-({4-[1-(oxetan-3-yl)piperidin-4-yl]phenyl}amino)pyrimidin-4-yl]benzonitrile]
